We go through 19 molecules from patent US9872847B2 (priority 2013, dated 2018).

The subject of one data set is Harmaline-induced tremor. Nature of the data set: animal or person. It counts as in vivo, male Sprague-Dawley rats. Conditions: po; for inhibition in vivo at 130 mg/kg / inhibition in vivo at 100 mg/kg / ED50: Rattus norvegicus; for inhibition in vivo at 130 mg/kg / inhibition in vivo at 100 mg/kg: 0.5 h, read-out: Protection % (percentage of activity compared to the vehicle only); for On-set time Mean ± S.E.M. / On-set time Median / Tremor score Mean ± S.E.M. / Tremor score Median: rat, in vivo.

The subject of data set [1] is MES (electrical stimulus) seizure. The data set can be described thus: animal or person. Type of data set: in vivo, male ICR mice. Conditions: for Protection % (percentage of activity compared to the vehicle only): mouse, in vivo.
Data set [2] concerns motor abilities on the Rotarod. Nature of the data set: Neurotoxicity (Rotarod). Type of data set: in vivo. The settings on record: protective index, mice. The method, then:
The measurement of neurotoxicity of the test compounds was conducted by the method of Dunham and Miya [Dunham, N. W. and Miya, T. S. 1957. A note on a simple apparatus for detecting neurological deficit in rats and mice. J. Am. Pharm. Assoc. (Baltimore) 46: 208˜209]. In the method, motor abilities of the test animals can be determined by observing whether the test animals can walk without falling from a rotator, thereby determining the value of neurotoxicity of each compound. […] They were pre-trained on the rotarod (Rotarod; Columbus instrument, rota-max, USA) at 6 rpm for 5 min 24 hr prior to the test. The peak time was determined by administration test material's random dose for 0.5, 1, 2, 4 hour. […] The ratio of TD50 to ED50 (TD50/ED50) is called as a protective index, and useful as a parameter for comparison of pharmaceutical efficacy and neurotoxicity.

In the case of `C[C@H](OC(N)=O)[C@@H](O)c1ccc(Cl)cc1Cl` [Compound 36, 1-(2,4-dichlorophenyl)-(S)-1-hydroxypropyl-(S)-2-carbamate], the inhibition in vivo at 130 mg/kg in the data set with Harmaline-induced tremor is 83.3%.

As to `CC[C@H](OC(N)=O)[C@@H](O)c1ccc(Cl)cc1Cl` [Compound 39, 1-(2,4-dichlorophenyl)-(S)-1-hydroxybutyl-(S)-2-carbamate], the inhibition in vivo at 130 mg/kg with Harmaline-induced tremor came out at 66.7%.

For the molecule `C[C@H](OC(=O)NC1CC1)[C@@H](O)c1ccccc1Cl` [Compound 25, 1-(2-chlorophenyl)-(R)-1-hydroxypropyl-(R)-2-N-cyclopropylcarbamate], in data set [1] (Mus musculus, po, read-out: Protection % (percentage of activity compared to the vehicle only)), the responders at 200 mg/kg worked out at 25%.

`C[C@H](OC(N)=O)[C@@H](O)c1ccccc1F` [Compound 63, 1-(2-fluorophenyl)-(S)-1-hydroxypropyl-(S)-2-carbamate]: in the data set with Harmaline-induced tremor, the inhibition in vivo at 100 mg/kg came to 83.3%.

Regarding `C[C@@H](OC(N)=O)[C@H](O)c1ccccc1Cl` [Compound 2, 1-(2-chlorophenyl)-(R)-1-hydroxypropyl-(R)-2-carbamate], in data set [2], the “PI(TD50/ED50 in MES)” value is 7.3. Also, the inhibition in vivo at 130 mg/kg with Harmaline-induced tremor turned out to be 66.7%.

Take `CC[C@H](OC(N)=O)[C@@H](O)c1ccccc1Cl` [Compound 6, 1-(2-chlorophenyl)-(S)-1-hydroxybutyl-(S)-2-carbamate]: the inhibition in vivo at 130 mg/kg in the data set with Harmaline-induced tremor was 75%.

On to `C[C@@H](OC(N)=O)[C@@H](O)c1ccccc1Cl` [Compound 4, 1-(2-chlorophenyl)-(S)-1-hydroxypropyl-(R)-2-carbamate], for which the inhibition in vivo at 100 mg/kg in the data set with Harmaline-induced tremor was 66.7%.

Consider `CC(C)[C@H](OC(N)=O)[C@@H](O)c1c(Cl)cccc1Cl` [Compound 42, 1-(2,6-dichlorophenyl)-(S)-1-hydroxy-3-methyl-butyl-(S)-2-carbamate], for which, in the data set with Harmaline-induced tremor, the inhibition in vivo at 100 mg/kg stood at 71.7%.

Consider `C[C@H](OC(N)=O)[C@H](O)c1ccccc1Cl` [Compound 5, 1-(2-chlorophenyl)-(R)-1-hydroxypropyl-(S)-2-carbamate], for which, in data set [2], the “PI(TD50/ED50 in MES)” value is on record as 3.3.

On to `CC(OC(N)=O)C(O)c1ccccc1Cl` (racemic) [Compound 3, 1-(2-chlorophenyl)-1-hydroxypropyl-2-carbamate], for which the “PI(TD50/ED50 in MES)” value in data set [2] was 12.0. The inhibition in vivo at 130 mg/kg with Harmaline-induced tremor was 75%.

As to `CC(C)[C@H](OC(N)=O)[C@@H](O)c1ccccc1Cl` [Compound 9, 1-(2-chlorophenyl)-(S)-1-hydroxy-3-methyl-butyl-(S)-2-carbamate], the inhibition in vivo at 130 mg/kg in the data set with Harmaline-induced tremor was determined as 58.3%.

As for `C[C@H](OC(N)=O)[C@@H](O)c1ccccc1Cl` [Compound 1, 1-(2-chlorophenyl)-(S)-1-hydroxypropyl-(S)-2-carbamate], the ED50 with Harmaline-induced tremor worked out at 12.9 mg/kg. In addition, in the data set with Harmaline-induced tremor (5 mg/kg), the “On-set time Mean ± S.E.M.” value worked out at 243 ± 7 s, the “On-set time Median” value came to 250 s, the “Tremor score Mean ± S.E.M.” value came out at 4.8 ± 0.5 and the “Tremor score Median” value stood at 5.0. Besides, in the data set with Harmaline-induced tremor (10 mg/kg), the “On-set time Mean ± S.E.M.” value turned out to be 289 ± 19 s, the “On-set time Median” value turned out to be 265 s, the “Tremor score Mean ± S.E.M.” value stood at 3.6 ± 0.6 and the “Tremor score Median” value is recorded as 2.5. For the same molecule, in the data set on Harmaline-induced tremor (20 mg/kg), the “On-set time Mean ± S.E.M.” value came out at 367 ± 21 s, the “On-set time Median” value came out at 375 s, the “Tremor score Mean ± S.E.M.” value is 1.8 ± 0.1 and the “Tremor score Median” value is given as 1.8.

Take `C[C@H](OC(N)=O)[C@@H](O)c1ccccc1I` [Compound 65, 1-(2-iodophenyl)-(S)-1-hydroxypropyl-(S)-2-carbamate]: the ED50 in the data set with Harmaline-induced tremor amounted to 19.2 mg/kg.

For `C[C@H](OC(N)=O)[C@@H](O)c1c(Cl)cccc1Cl` [Compound 37, 1-(2,6-dichlorophenyl)-(S)-1-hydroxypropyl-(S)-2-carbamate], the “PI(TD50/ED50 in MES)” value in data set [2] is listed as 5.1. The inhibition in vivo at 130 mg/kg in the data set on Harmaline-induced tremor was found to be 91.7%.

For the molecule `C[C@@H](OC(N)=O)[C@H](O)c1c(Cl)cccc1Cl` [Compound 46, 1-(2,6-dichlorophenyl)-(R)-1-hydroxypropyl-(R)-2-carbamate], in the data set on Harmaline-induced tremor, the inhibition in vivo at 100 mg/kg was 58.3%.

Regarding `CCCNC(=O)O[C@@H](C)[C@@H](O)c1ccccc1Cl` [Compound 16, 1-(2-chlorophenyl)-(S)-1-hydroxypropyl-(S)-2-N-propylcarbamate], the “Protection % (percentage of activity compared to the vehicle only)” value in data set [1] is given as 200 ^a(25%).

On to `CCCNC(=O)O[C@H](C)[C@H](O)c1ccccc1Cl` (racemic) [Compound 30, 1-(2-chlorophenyl)-1-hydroxypropyl-2-propylcarbamate], for which the “Protection % (percentage of activity compared to the vehicle only)” value in data set [1] was 200 ^a(25%).

Take `C[C@H](OC(N)=O)[C@@H](O)c1cccc(Cl)c1Cl` [Compound 38, 1-(2,3-dichlorophenyl)-(S)-1-hydroxypropyl-(S)-2-carbamate]: in the data set with Harmaline-induced tremor, the inhibition in vivo at 100 mg/kg came out at 55%.

As for `CC[C@H](OC(N)=O)[C@@H](O)c1ccccc1I` [Compound 67, 1-(2-iodophenyl)-(S)-1-hydroxybutyl-(S)-2-carbamate], the inhibition in vivo at 100 mg/kg in the data set on Harmaline-induced tremor amounted to 83.3%.
